US10106625B2, “Pharmaceutical compositions with enhanced performance and improved processability” (HERCULES INCORPORATED, priority 2013, dated 2018)
Read-outs that look alike come from different tables or passages of the source.

Tests used:
[1] = Kinetic solubility of spray dried dispersion with Ezetimibe in FaSSIF; format: physicochemical
Method: Hg reduced pressure for 24 hours.

[2] = cited from earlier work
[3] = 120 min
Method: Dissolution was performed using a pDISS Profiler™ (available from Pion Inc., MA, USA). Each spray-dried powder was weighed so that the volume adjusted equivalent of the typical daily dose of the drug was added to each vial and compensation was made for the drug load of the samples. For example, the target API was 9.5 mg for Felpdipine in 20 ml of FaSSIF. The spray dried sample containing 9.5 mg API of Felpdipine was weighed. For Ezetimibe, the spray dried sample containing 10 mg API was weighed. The weighed spray dried samples were added to 20 ml of FaSSIF in vials and then heated to 37° C. The vials were maintained at a constant stirring speed of 300 RPM. Dissolution measurements were taken by in situ fiber optic probes at various time points and these measurements were analyzed at the appropriate wavelength for dissolved API concentration. Based on the in situ measurement data, various solubility parameters were calculated.

With `O=C1[C@H](CC[C@H](O)c2ccc(F)cc2)[C@@H](c2ccc(O)cc2)N1c1ccc(F)cc1` [Ezetimibe API, Ezetimibe] as the molecule, how does the C120 ([1]; Ezetimibe SDD, 60% drug load, API concentration at 120 minutes) read?
The C120 was 14 µg/mL.

What about the AUC120 ([1]; Ezetimibe SDD, 60% drug load, FaSSIF 37° C., API concentration over first 120 minutes) of the same molecule?
The AUC120 was 1,626 μg * min/mL.

And the “AUC(Rel)” value ([1]; Ezetimibe, ratio of AUC120 of polymer/drug dispersion versus API alone)?
Its value is 1.0.

For `CCOC(=O)N1c2ccc(C(F)(F)F)cc2[C@@H](N(Cc2cc(C(F)(F)F)cc(C(F)(F)F)c2)C(=O)OC)C[C@H]1CC` [torcetrapib], which aqueous solubility [2] is on record?
Its aqueous solubility is “less than 0.04 μg/ml”.

Which C120 [3] does the source give for `CCOC(=O)C1=C(C)NC(C)=C(C(=O)OC)C1c1cccc(Cl)c1Cl` (centres unmarked) [Felodipine API, Felodipine] here?
The C120 was 28 µg/mL.
